Source: patent US20120238554A1, “SALTS OF POTASSIUM ATP CHANNEL OPENERS AND USES THEREOF” (priority 2007, published 2012)
Entries after “also recorded” stand apart in the source; their conditions may differ. Structures can show the parent of a compound that is named as a salt. Where two headings read alike, the source gives them in different places. Marks after values point to notes of the source that are not given here.

Experiments:
[1] = Bioavailability of diazoxide choline and related molecules; details: male mice; for AUC0-6 / Cmax: Oral gavage, single 50 mg/kg dose; for Relative oral bioavail.: ratio of AUC0-6 to that of the IV dose of diazoxide choline
Procedure: The study used 4 mice dosed per treatment arm. Following, a single intravenous or oral dose, administered by gavage, pharmacokinetic samples were collected at 4 time points: 0.5, 1, 3, and 6 hours post-dosing. Two mice were sampled at each timepoint, with each mouse contributing samples to two timepoints. Each test drug was administered as a 50 mg/kg dose, which yields nearly equal molar concentrations. […] Blood samples were collected into tubes containing dipotassium EDTA as the anticoagulant and placed on ice packs until centrifugation (at 3000 rpm for 10 minutes at 4° C.). After centrifugation, samples were stored at −70° C. until they were thawed for analysis. Circulating drug levels were measured using a precise and reproducible LC-MS/MS assay.

obese Zucker rats = details: 5 mg/kg/day, cited from earlier work
[2] = Solubility screen in organic solvents
[3] = Moisture sorption analysis; type: physicochemical
Procedure: Moisture Sorption Analysis was performed with a Hiden IGAsorp Moisture Sorption Instrument, Samples were first dried at 0% relative humidity at 25° C. until an equilibrium weight was reached, or for a maximum of 4 hours. Samples were then subjected to an isothermal (25° C.) scan from 10-90% relative humidity in steps of 10%. The samples were allowed to equilibrate to an asymptotic weight at each point for a maximum of 4 hours. Following absorption, a desorption scan from […] relative humidity (at 25° C.) was run in steps of −10%, again allowing a maximum of 4 hours for the samples to equilibrate. The resulting samples after desorption were dried at 80° C. for two hours and analyzed by XRPD.

[4] = Polymorph screening crystallizations and characterization of forms (XRPD, DSC, TGA); type: physicochemical; details: for TGA: data indicates a half-molar equivalent of acetone, water, or dioxane for Forms C, D, F
Procedure: DSC analysis were conducted with a Mettler 822 DSC, by measuring the amount of energy released by a sample, as the sample was heated from 30° C. to between 300-500° C. at a rate of 10° C./min. Typical applications of DSC analysis include determination of melting point temperature and the heat of melting; measurement of the glass transition temperature; curing and crystallization studies; and identification of phase transformations.
TGA measurements were conducted with a Mettler 851 SDTA/TGA, by measuring weight loss as a function of increasing temperature, as the samples were heated from 30° C. to 230° C. at a rate of 10° C./min. The TCA can be used to analyze desorption and decomposition behavior, characterize oxidation behavior, set burnout or conditioning parameters (temperature/ramp rate/time), and determine chemical composition.
XRPD samples were analyzed with a Shimadzu XRD-6000 system, using a Cu Kα, 40 kV, 40 mA X-ray tube. The divergence and scatter slits were 1.00 deg, and the receiving slit was 0.30 mm. Samples were continuously scanned at a range of 3.0-45.0 deg, with a step size of 0.04 deg., at a scan rate of 2 deg/min.
After hot filtration the vials were placed in a refrigerator (4° C.) for 16 hours. […] All solids were dried in vacuo at ambient temperature and 30 in. Hg.
After hot filtration the vials were then slowly cooled to room temperature at the rate of 20° C./h and stirred at room temperature for 1-2 hours. All solids were dried in vacuo at ambient temperature and 30 in. Hg.
Solvents for crystallizations were chosen based on the solubility screen summarized below.

[5] = Form conversion and degradation under thermal stress (60° C.); details: for Thermal: 7 days
Procedure: Studies were also conducted to evaluate the likelihood for conversion and degradation under thermal stress.

Zucker rats = details: oral 1-10 mg/kg/day, 14 days; cited from earlier work
high-fructose diet rats = details: rat, in vivo; cited from earlier work
[6] = Slurry studies of inter-conversion of the solid form; details: room temperature
[7] = 60° C., closed, protected from light, 7 and 14 days
[8] = 50/50 mixtures of potassium salt Forms C, D, F, ethyl acetate, acetonitrile, isopropanol

Structure (SMILES): O=S1(=O)N=C(NC2CCC2)Nc2ccc(Br)cc21
- AUC0-6 [1]: 800 ± 126 ng·h/mL
- Cmax [1]: 0.181 ± 0.016 µg/mL
- Relative oral bioavail. [1]: 0.6%

Structure (SMILES): CC(C)NC1=NS(=O)(=O)c2cc(Cl)c(F)cc2N1
- AUC0-6 [1]: 313 ± 15 ng·h/mL
- Cmax [1]: 0.08 ± 0.012 µg/mL
- Relative oral bioavail. [1]: 0.2%

Structure (SMILES): O=S1(=O)N=C(NC2CCC2)Nc2ccc(F)cc21
- AUC0-6 [1]: 89 ± 16 ng·h/mL
- Cmax [1]: 0.024 ± 0.01 µg/mL
- Relative oral bioavail. [1]: 0.06%

Structure (SMILES): COc1ccc2c(c1)NC(NC(C)C)=NS2(=O)=O
- AUC0-6 [1]: 3590 ng·h/mL
- Cmax [1]: 1.56 µg/mL
- Relative oral bioavail. [1]: 2.6%

Structure (SMILES): Cl.N#CN=C(Nc1ccc(N)nc1)N[C@@H]1C[C@@H]2CC[C@H]1C2 [AL0671, (+)—N-(6-amino-3-pyridil)-N′-[(1S,2R,4R)-bicyclo-[2.2.1]hept-2-yl]-N″-cyanoguanidine hydrochloride]
- serum total triglyceride, chylomicron and very-low-density lipoprotein levels (obese Zucker rats; 1 or 2 weeks): significantly decrease
- increase of hepatic triglyceride lipase activities (obese Zucker rats; postheparin plasma): 3 fold
- increase of lipoprotein lipase activities (obese Zucker rats; postheparin plasma): 4 fold

Structure (SMILES): CC1=NS(=O)(=O)c2cc(Cl)ccc2N1 [Diazoxide Potassium Salt]
- Soluble ([2]; Acetone, 0.40 mg/mL, 55 ° C.): Yes
- Conc. ([2]; CH2Cl2, 55 ° C.): 260 µg/mL
- Soluble ([2]; CH2Cl2, […], 55 ° C.): No
- Soluble ([2]; DMF, >6.40 mg/mL, rt): Yes
- Conc. ([2]; DMF, rt): >6400 µg/mL
- Conc. ([2]; Dioxane, 55 ° C.): 280 µg/mL
- Soluble ([2]; Dioxane, […], 55 ° C.): No
- Conc. ([2]; EtOAc, 55 ° C.): 360 µg/mL
- Soluble ([2]; EtOAc, […], 55 ° C.): No
- Conc. ([2]; EtOH, 55 ° C.): 2930 µg/mL
- Soluble ([2]; EtOH, […], 55 ° C.): Yes
- Soluble ([2]; Heptane, 0.24 mg/mL, 55 ° C.): No
- Conc. ([2]; Heptane, 55 ° C.): 240 µg/mL
- Conc. ([2]; IPA, 55 ° C.): 2100 µg/mL
- Soluble ([2]; IPA, […], 55 ° C.): Yes
- Conc. ([2]; IPAc, 55 ° C.): 340 µg/mL
- Soluble ([2]; IPAc, […], 55 ° C.): No
- Soluble ([2]; MEK, 0.30 mg/mL, 55 ° C.): Partially
- Conc. ([2]; MEK, 55 ° C.): 300 µg/mL
- Conc. ([2]; MTBE, 55 ° C.): 360 µg/mL
- Soluble ([2]; MTBE, […], 55 ° C.): No
- Soluble ([2]; MeCN, 0.85 mg/mL, 55 ° C.): Yes
- Conc. ([2]; MeCN, 55 ° C.): 850 µg/mL
- Soluble ([2]; MeOH, 6.00 mg/mL, 55 ° C.): Yes
- Conc. ([2]; MeOH, 55 ° C.): 6000 µg/mL
- Conc. ([2]; THF, 55 ° C.): 360 µg/mL
- Soluble ([2]; THF, […], 55 ° C.): Partially
- Conc. ([2]; Toluene, 55 ° C.): 280 µg/mL
- Soluble ([2]; Toluene, […], 55 ° C.): No
- Soluble ([2]; Water, 0.30 mg/mL, 55 ° C.): No
- Soluble ([2]; c-Hexane, 0.30 mg/mL, 55 ° C.): No
- Conc. ([2]; c-Hexane, 55 ° C.): 300 µg/mL
- solubility ([2]; water, 55 °C): 300 µg/mL

Structure (SMILES): CC1=NS(=O)(=O)c2cc(Cl)ccc2[N-]1.[K+] [Diazoxide potassium Form C]
- Moisture Sorption [3]: Hygroscopic -
- Moisture Sorption: deliquesced at [3]: deliquesced at 90% RH
- XRPD [4]: Crystalline
- TGA [4]: 8.4%**
- Thermal [5]: Stable (7 days)

Structure (SMILES): CC1=NS(=O)(=O)c2cc(Cl)ccc2[N-]1.[K+] [Diazoxide potassium Form D]
- Moisture Sorption [3]: Hygroscopic -
- Moisture Sorption: deliquesced at [3]: deliquesced at 90% RH
- XRPD [4]: Crystalline
- TGA [4]: 4.5%**
- Thermal [5]: Stable (7 days)

Structure (SMILES): CC1=NS(=O)(=O)c2cc(Cl)ccc2[N-]1.[K+] [Diazoxide potassium Form F]
- XRPD [4]: Crystalline
- TGA [4]: 13.1%**
- Thermal [5]: Stable (7 days)

Structure (SMILES): N#CNC(=NCCc1ccccc1Cl)c1cncc(N)c1 [KRN4884]
- serum insulin and glucose levels (Zucker rats): no change
- serum triglyceride levels (Zucker rats): dose dependently reduce
- Hepatic triglyceride lipase activity (high-fructose diet rats): not affected
- lipoprotein lipase (LPL) activity in muscle (high-fructose diet rats): significantly increased

Structure (SMILES): CC1=Nc2ccc(Cl)cc2S(=O)(=O)[N-]1.C[N+](C)(C)CCO [diazoxide choline salt Form A]
- Moisture Sorption (hygroscopicity) ([3]; 25° C., listed as Form A): Hygroscopic - deliquesced
- water absorbed ([3]; 60% RH, 25° C., listed as Form A): 2.4 wt %
- crystalline form after moisture sorption/desorption (XRPD) ([3]; listed as Form A): consistent with Form A
- form conversion and degradation under thermal stress (XRPD, DSC) [5]: Started to convert to Form
- inter-conversion of the solid form in slurry ([6]; 7 and 14 days, n-heptane, dichloromethane, toluene (Table 16 Form B: CH2Cl2, THF, t-AmOH), listed as Form A): conversion to Form B was observed after seven days; also recorded: readily converted to Form B; also recorded: Converted to Form B after 7

Structure (SMILES): CC1=Nc2ccc(Cl)cc2S(=O)(=O)[N-]1.C[N+](C)(C)CCO [diazoxide choline salt Form B]
- Moisture Sorption (hygroscopicity) ([3]; 25° C., listed as Form B): hygroscopic; also recorded: Hygroscopic -
- water absorbed ([3]; 60% RH, 25° C., listed as Form B): 7.4 wt %
- moisture absorbed ([3]; 70% relative humidity, 25° C.): over 14.5%
- crystalline form after moisture sorption/desorption (XRPD) ([3]; listed as Form B): remained in the Form B crystal structure
- form conversion and degradation under thermal stress (XRPD, DSC) [5]: Stable after 14 days at
- inter-conversion of the solid form in slurry ([6]; 7 and 14 days, n-heptane, dichloromethane, toluene (Table 16 Form B: CH2Cl2, THF, t-AmOH), listed as Form B): form conversion was not observed; also recorded: Stable after 14 days in

Structure (SMILES): CC(C)=O.CC1=NS(=O)(=O)c2cc(Cl)ccc2[N-]1.CC1=NS(=O)(=O)c2cc(Cl)ccc2[N-]1.[K+].[K+] [diazoxide potassium salt Form C]
- crystalline form after moisture sorption/desorption (XRPD) [3]: consistent with Form D
- Moisture Sorption (hygroscopicity) ([3]; 25° C.): hygroscopic
- water absorbed ([3]; 90% RH, 25° C.): approximately 47 wt %
- form conversion and degradation under thermal stress (XRPD, DSC) [5, 7]: stable
- inter-conversion of the solid form in slurry [6, 8]: readily converted to Form D; also recorded: conversion to Form D was observed in all solvents

Structure (SMILES): CC1=NS(=O)(=O)c2cc(Cl)ccc2[N-]1.CC1=NS(=O)(=O)c2cc(Cl)ccc2[N-]1.O.[K+].[K+] [diazoxide potassium salt Form D]
- crystalline form after moisture sorption/desorption (XRPD) [3]: consistent with Form D
- Moisture Sorption (hygroscopicity) ([3]; 25° C.): hygroscopic
- inter-conversion of the solid form in slurry [6, 8]: conversion to Form D was observed in all solvents

Structure (SMILES): C1COCCO1.CC1=NS(=O)(=O)c2cc(Cl)ccc2[N-]1.CC1=NS(=O)(=O)c2cc(Cl)ccc2[N-]1.[K+].[K+] [diazoxide potassium salt Form F]
- crystalline form after moisture sorption/desorption (XRPD) [3]: consistent with Form D
- Moisture Sorption (hygroscopicity) ([3]; 25° C.): hygroscopic
- water absorbed ([3]; 90% RH, 25° C.): ~22 wt %
- inter-conversion of the solid form in slurry [6, 8]: readily converted to Form D; also recorded: conversion to Form D was observed in all solvents

Structure (SMILES): CC1=NS(=O)(=O)c2cc(Cl)ccc2[N-]1.[Na+] [sodium salt of diazoxide]
- Moisture Sorption (hygroscopicity) ([3]; 25° C.): hygroscopic
- hydrate formation (hysteresis upon desorption) ([3]; 25° C.): possible hydrate formation
- Moisture Sorption (hygroscopicity) ([3]; 25° C., listed as Sodium diazoxide salt): deliquescent -
- water absorbed ([3]; 60% RH, 25° C.): 1.2 wt %
- water absorbed ([3]; 80% RH, 25° C.): 6.6 wt %
- form conversion and degradation under thermal stress (XRPD, DSC) [5, 7]: little propensity to change form or degrade
- inter-conversion of the solid form in slurry ([6]; 7 and 14 days, n-heptane, dichloromethane, toluene (Table 16 Form B: CH2Cl2, THF, t-AmOH)): no propensity of inter-conversion
